# In ChEMBL document CHEMBL4609999, “Novel alkoxyamide-based histone deacetylase inhibitors reverse cisplatin resistance in chemoresistant cancer cells” (Bioorg Med Chem, 2020):
# Experiments:
# [1] = biological target: Histone deacetylase; assay: Inhibition of HDAC in human A2780 cells; type: cell-based
# [2] = tested on: A2780; assay: Cytotoxicity against human A2780 cells assessed as reduction in cell viability by MTT assay; type: functional, cell-based
# [3] = biological target: Histone deacetylase 4 (Homo sapiens, UniProt P56524); assay: Inhibition of recombinant human HDAC4
# Histone deacetylase 4, sequence (P56524 whole entry): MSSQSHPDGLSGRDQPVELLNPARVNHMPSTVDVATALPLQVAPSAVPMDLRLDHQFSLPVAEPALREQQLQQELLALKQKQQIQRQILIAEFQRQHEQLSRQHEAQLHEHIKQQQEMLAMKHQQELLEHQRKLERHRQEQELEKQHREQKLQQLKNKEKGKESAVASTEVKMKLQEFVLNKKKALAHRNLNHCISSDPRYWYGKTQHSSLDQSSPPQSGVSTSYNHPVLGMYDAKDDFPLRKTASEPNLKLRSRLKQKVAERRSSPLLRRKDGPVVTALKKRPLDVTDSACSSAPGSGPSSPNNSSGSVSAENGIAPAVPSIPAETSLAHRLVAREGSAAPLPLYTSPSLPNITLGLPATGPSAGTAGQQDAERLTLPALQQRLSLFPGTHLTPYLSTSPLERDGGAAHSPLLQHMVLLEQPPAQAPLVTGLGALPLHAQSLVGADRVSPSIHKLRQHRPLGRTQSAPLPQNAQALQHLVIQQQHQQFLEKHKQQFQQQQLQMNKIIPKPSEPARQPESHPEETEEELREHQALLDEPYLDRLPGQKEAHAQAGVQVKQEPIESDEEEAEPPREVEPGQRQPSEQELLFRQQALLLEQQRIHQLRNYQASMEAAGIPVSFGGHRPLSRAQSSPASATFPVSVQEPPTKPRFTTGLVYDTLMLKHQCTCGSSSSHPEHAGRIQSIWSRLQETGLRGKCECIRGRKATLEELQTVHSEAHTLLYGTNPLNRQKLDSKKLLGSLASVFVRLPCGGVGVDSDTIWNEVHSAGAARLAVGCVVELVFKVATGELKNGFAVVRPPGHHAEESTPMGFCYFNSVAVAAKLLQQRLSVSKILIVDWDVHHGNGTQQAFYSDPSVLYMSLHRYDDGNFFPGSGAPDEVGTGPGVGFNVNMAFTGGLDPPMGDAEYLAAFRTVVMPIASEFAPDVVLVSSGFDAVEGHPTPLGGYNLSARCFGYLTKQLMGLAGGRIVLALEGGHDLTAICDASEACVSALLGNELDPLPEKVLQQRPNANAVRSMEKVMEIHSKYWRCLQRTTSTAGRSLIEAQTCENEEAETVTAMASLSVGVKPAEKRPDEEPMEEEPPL
# [4] = biological target: Histone deacetylase; assay: Inhibition of HDAC in human Cal27 cells; type: cell-based; conditions: cal-27
# [5] = tested on: CAL-27; assay: Cytotoxicity against human CAL27 cells assessed as reduction in cell viability by MTT assay; type: functional, cell-based
# [6] = biological target: T1, Protein deacetylase HDAC6 (Homo sapiens, UniProt Q9UBN7); assay: Inhibition of recombinant human HDAC6
# T1 sequence (Q9UBN7 whole entry): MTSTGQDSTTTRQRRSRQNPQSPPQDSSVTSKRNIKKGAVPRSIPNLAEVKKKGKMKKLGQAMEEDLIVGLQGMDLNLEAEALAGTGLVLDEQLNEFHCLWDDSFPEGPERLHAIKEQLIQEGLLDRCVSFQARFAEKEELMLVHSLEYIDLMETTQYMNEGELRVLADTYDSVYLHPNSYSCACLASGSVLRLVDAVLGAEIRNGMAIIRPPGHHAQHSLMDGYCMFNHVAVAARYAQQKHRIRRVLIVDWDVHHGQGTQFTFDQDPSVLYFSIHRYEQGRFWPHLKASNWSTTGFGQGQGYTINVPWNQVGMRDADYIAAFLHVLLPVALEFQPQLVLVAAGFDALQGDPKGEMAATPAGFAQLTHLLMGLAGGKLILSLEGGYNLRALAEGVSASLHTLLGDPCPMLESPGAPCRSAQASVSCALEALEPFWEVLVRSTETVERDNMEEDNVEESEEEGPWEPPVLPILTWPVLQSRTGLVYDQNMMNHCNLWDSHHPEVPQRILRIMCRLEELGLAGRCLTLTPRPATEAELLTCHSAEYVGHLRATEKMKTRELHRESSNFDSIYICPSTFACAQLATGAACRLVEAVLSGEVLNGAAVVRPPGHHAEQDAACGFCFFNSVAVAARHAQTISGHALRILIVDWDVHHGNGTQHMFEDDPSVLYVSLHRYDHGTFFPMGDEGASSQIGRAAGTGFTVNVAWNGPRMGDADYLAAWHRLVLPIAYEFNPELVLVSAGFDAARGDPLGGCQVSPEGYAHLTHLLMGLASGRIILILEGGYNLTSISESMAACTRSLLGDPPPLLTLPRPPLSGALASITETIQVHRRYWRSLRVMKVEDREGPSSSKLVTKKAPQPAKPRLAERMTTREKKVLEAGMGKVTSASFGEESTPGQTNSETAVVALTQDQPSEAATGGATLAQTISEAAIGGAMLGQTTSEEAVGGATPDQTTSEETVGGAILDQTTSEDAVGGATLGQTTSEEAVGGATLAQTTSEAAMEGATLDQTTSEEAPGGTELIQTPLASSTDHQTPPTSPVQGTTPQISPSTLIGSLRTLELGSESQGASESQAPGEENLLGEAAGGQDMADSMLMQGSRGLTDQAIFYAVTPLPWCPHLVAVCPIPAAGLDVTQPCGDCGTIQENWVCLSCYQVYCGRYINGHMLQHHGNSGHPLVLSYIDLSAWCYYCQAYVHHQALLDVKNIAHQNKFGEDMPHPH
# [7] = biological target: Histone deacetylase 2 (Homo sapiens, UniProt Q92769); assay: Inhibition of recombinant human HDAC2
# Histone deacetylase 2, sequence (Q92769 whole entry): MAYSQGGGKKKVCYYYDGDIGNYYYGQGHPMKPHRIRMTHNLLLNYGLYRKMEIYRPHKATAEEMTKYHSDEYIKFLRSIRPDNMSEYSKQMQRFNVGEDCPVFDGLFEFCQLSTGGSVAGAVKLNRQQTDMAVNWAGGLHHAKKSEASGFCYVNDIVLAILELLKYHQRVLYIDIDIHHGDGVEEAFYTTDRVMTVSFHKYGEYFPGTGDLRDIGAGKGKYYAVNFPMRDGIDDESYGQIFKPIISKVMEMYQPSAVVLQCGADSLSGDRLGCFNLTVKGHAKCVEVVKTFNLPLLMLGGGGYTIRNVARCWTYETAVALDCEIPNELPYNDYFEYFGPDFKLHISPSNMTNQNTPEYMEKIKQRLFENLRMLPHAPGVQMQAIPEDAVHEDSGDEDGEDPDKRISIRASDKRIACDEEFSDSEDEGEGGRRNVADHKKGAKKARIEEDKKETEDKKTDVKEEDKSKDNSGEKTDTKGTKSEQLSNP
# [8] = biological target: T2, Histone deacetylase 8 (Homo sapiens, UniProt Q9BY41); assay: Inhibition of recombinant human HDAC8
# T2 sequence (Q9BY41 whole entry): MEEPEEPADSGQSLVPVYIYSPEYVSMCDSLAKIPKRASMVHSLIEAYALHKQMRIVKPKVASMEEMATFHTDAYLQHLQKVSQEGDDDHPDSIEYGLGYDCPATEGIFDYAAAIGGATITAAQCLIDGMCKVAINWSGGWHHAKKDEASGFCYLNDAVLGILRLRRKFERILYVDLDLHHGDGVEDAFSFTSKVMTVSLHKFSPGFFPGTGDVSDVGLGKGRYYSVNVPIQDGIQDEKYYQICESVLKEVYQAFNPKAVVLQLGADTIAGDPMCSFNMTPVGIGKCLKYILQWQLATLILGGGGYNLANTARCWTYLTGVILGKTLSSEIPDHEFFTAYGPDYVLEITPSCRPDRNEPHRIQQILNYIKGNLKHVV
IC50 [1] [µM],Ki [3] [µM],IC50 [4] [µM],Ki [6] [µM],Ki [7] [µM],Ki [8] [µM],SMILES,IC50 [2] [µM],IC50 [5] [µM]
7.2,> 100,9.4,0.33,1.33,10,O=C(CCCCCONC(=O)c1cc(I)cc(I)c1I)NO,64,45
3.79,> 100,3.77,0.1,0.58,14.7,O=C(CCCCCONC(=O)c1cc(F)cc(F)c1)NO,13.7,7.98
4.24,> 100,3.36,0.42,0.37,22.3,Cc1cc(C)cc(C(=O)NOCCCCC(=O)NO)c1,9.34,8.67
14.5,> 100,12.7,0.35,1.36,18.9,O=C(CCCCCONC(=O)c1c(Cl)cncc1Cl)NO,68.4,28.1
1.65,31.8,1.8,0.12,0.21,4.44,O=C(CCCCCONC(=O)c1cc(Br)cc(Br)c1)NO,10.2,3.63
